According to patent US10046020B2, “Inflammation inhibiting compounds” (priority 2001, dated 2018):
Square brackets hold non-standard residues; d marks the D form. Peptide text beside a SMILES is read from it.

Tests used:
[1] = tested on: BNX mice transplanted with skin from psoriatic human donors; experiment: Psoriasis transplant model (human psoriatic skin on BNX mice); format: in vivo; settings: FIG. 25B; KdPT i.p. 10 μg/d, three weeks
Protocol: Immunodeficient mice (BNX mice) were transplanted with skin from psoriatic human donors. Animals with viable transplant were injected with PBMCs from the same donor, resulting in appearance of a psoriatic phenotype within the transplant. Animals were treated as follows:
Group 1: Betamethasone, topically, 2× daily, Group 2: Vehicle, i.p. 100 μL/d, Group 3: KdPT i.p. 1 μg/d, Group 4: KdPT i.p. 10 μg/d, all treatments were kept up for three weeks.
As shown in FIGS. 25A and 25B, immunodeficient mice (BNX mice) were transplanted with skin from psoriatic donors. Animals with viable transplant were injected with PBMCs from the same donor, resulting in appearance of a psoriatic phenotype within the transplant. Animals were treated as follows:
Group 1: Vehicle, i.p. 100 μL/d, Group 2: Betamethasone, topically, 2× daily, Group 3: KdPT i.p. 10 μg/d, all treatments were kept up for three weeks.

[2] = tested on: bone marrow dendritic cells (BMDC); experiment: CHS and tolerance after injection of BMDC treated in vitro with hapten and αMSH or KP; format: in vivo, mice; settings: for immune response at second challenge after resensitization (tolerance): recipients of hapten- and peptide-treated BMDC; for CHS reaction at first challenge in recipients of hapten- and peptide-treated BMDC: αMSH 2×10^−11 M or KP 2×10^−6M in vitro, cells i.v.
Protocol: Bone marrow dendritic cells (BMDC) were isolated from the femoral bones of mice and treated with IL-4 and GMCSF for 6 or 9 days. On day 6 or 9, the cells were treated with αMSH (2×10^−11 M) or the peptide KP (2×10^−6M) 3 hours and 2.5 hours before reinjection into naive mice with the same genetic background. 2 hours before reinjection, the cells were treated with hapten (1 mM DNBS, the water-soluble form of DNFB). Immediately before the reinjection, the cells were washed 2× with PBS. […] were injected i.v. into each animal. Control cells were treated either with DNBS alone or with αMSH alone or were left untreated. 5 days after injection, the animals were contacted with DNFB on the ear, and the ear thickness was measured the next day. 2 weeks later, the animals were resensitized with DNFB and again recontacted on the ear 5 days later. Finally, the auricular swelling was measured.

[3] = tested on: Balb/C mice; experiment: CHS sensitization and tolerance after i.v. injection of αMSH or peptides (DNFB); settings: for inhibition of CHS response to DNFB exposure 7 days after sensitization (auricular swelling): i.v. 2 hours before sensitization, 5 μg αMSH or 1.5 μg peptide (KP: 50 μg) per mouse; for auricular swelling response after second sensitization and hapten exposure (tolerance to DNFB): injected i.v. before the first sensitization only
Protocol: 7 to 10 week old female Balb/C mice were obtained from Charles River (Sulzfeld, Germany) and kept in compliance with government regulations.
Before the injection, the particular compound was dissolved in PBS, 0.1% mouse serum, and stored on ice until injected i.v. into the tail vein of the mice.
The mice were sensitized by spreading 75 μl of 0.5% DNFB in acetone/olive oil (4:1) on the shaven abdomen of naive mice. CHS was induced by applying 10 μl of 0.3% DNFB to the ears of the mice on both sides of one ear. CHS was determined by the degree of auricular swelling of the hapten-exposed ear compared with the other, control-treated ear and was measured using spring-loaded dividers 24 hours after hapten exposure. Mice whose ears were exposed to hapten without previous sensitization served as negative controls.

[4] = tested on: sensitised recipient mice (Hapten: DNFB); experiment: Reinjection of CD4+ T-cells contacted with peptide-treated DC into DNFB-sensitised mice; format: in vivo; settings: 1×10^6 cells
[5] = tested on: CD4+-T-cells; experiment: CD4+ T-cells after contact with peptide-treated DC in vitro; format: cell-based
[6] = tested on: human PBMC; experiment: IL-10 secretion by human PBMC (ELISA); format: cell-based; settings: for IL-10 production: 24 hours, αMSH 10^−11 M, KPV and KPT 10^−8 to 10^−9M; for production of IL-10: 48 hours
Protocol: Mononuclear cells (PBMC) were separated from human buffy coats by Ficoll Hypaque density gradient centrifugation. Cells (1×10^6 per ml), cultivated in RPMI 1640 with antibiotics and 10% FCS, were either not treated or stimulated with αMSH or the peptides KPV or KPT with or without IL-1β (10 U/ml). The supernatants of the PBMC cultures were collected after incubation for 24 or 48 hours and stored at −20° C. until used further. A commercially available ELISA was employed to detect IL-10.

[7] = target: T1, melanocortin receptor on THP-1 cells (MC-1) (Homo sapiens, UniProt Q01726); experiment: Competition with biotin-labeled αMSH for binding sites on THP-1 cells (FACS); settings: unlabeled competitor 10^−6 M; biotin-labeled αMSH 10^−10 M
T1 construct: endogenous in cells; host or cells: THP-1 monocytic cell line (unstimulated, whole cells)
Protocol: All the steps were carried out at 0 to 4° C. The monocytic cell line THP-1 was washed once in PBS, once one acidic glycine buffer (50 mM glycine, 100 mM sodium chloride, pH 3) and three times with RPMI. The cells 2.5×10^6 per ml) were then resuspended in 100 μl of RPMI/1% BSA and transferred into 96-well microtiter plates. […] After a last washing step, the cells were resuspended in PBS. […] Dead cells were excluded by adding propidium iodide shortly before the FACS analysis.

[8] = tested on: PBMC from the blood of psoriasis patients; experiment: Regulatory T cells in PBMC from blood of psoriasis patients; format: cell-based, human
[9] = tested on: LPS-treated mice; experiment: LPS-induced localized vasculitis in mice (E selectin, petechial lesions); format: in vivo; settings: αMSH 25 μg at the time of the preparatory LPS injection
Protocol: Mice were treated with LPS by s.c. injection on one ear. This preparatory injection induces a long-lasting rise in E selectin expression at the site of the LPS injection. 24 hours later, a second LPS dose was injected i.p. (challenge). This second LPS injection leads to rapid vessel necrolysis and to the formation of petechial lesions which are easily measurable because of their size and number. αMSH (25 μg) was administered at the time of the preparatory LPS injection.

[10] = tested on: mice with Imiquimod-induced psoriasis-like skin inflammation; experiment: Imiquimod-induced psoriasis-like disease in mice; format: in vivo
[11] = tested on: HDMEC; experiment: Lymphocyte adhesion assay (51Cr-labeled lymphocytes on endothelial cell layers); format: cell-based, human; settings: molt4 T lymphocytes, JY B lymphocytes
Protocol: (§1) Human dermal microvascular endothelial cells (HDMEC) and the cell line HMEC-1 (human microvascular endothelial cell line 1) were treated either with TNFα or LPS in the presence or absence of one of the peptides. The cells were harvested for RNA isolation after 3 and after 6 hours after treatment or harvested either for adhesion molecule ETA or FACS analysis 3, 6, 16 or 24 hours after treatment. RNA underwent reverse transcription, and samples were subjected to a PCR for E selectin, ICAM-1, VCAM or for β-actin as housekeeping gene in order to carry out a semiquantitative determination. For the lymphocyte adhesion assay, the endothelial cells were seeded in dishes and incubated with ^51Cr-labeled lymphocytes. After a washing step, the amount of remaining lymphocytes bound to the EC layer was determined by measuring the radioactivity in the samples.

[12] = tested on: T cells / DC; experiment: T cells contacted in vitro with antigen-loaded, αMSH or derivative-treated DC; format: in vivo, mouse; settings: FIG. 15
[13] = tested on: E selectin, ICAM-1, VCAM in HDMEC and HMEC-1; experiment: Expression of adhesion molecules in LPS- or TNFα-treated endothelial cells (RT-PCR, EIA, FACS); format: cell-based, human; settings: 10^−6 to 10^−12 M
Protocol: as §1

T1 sequence (Q01726 whole entry): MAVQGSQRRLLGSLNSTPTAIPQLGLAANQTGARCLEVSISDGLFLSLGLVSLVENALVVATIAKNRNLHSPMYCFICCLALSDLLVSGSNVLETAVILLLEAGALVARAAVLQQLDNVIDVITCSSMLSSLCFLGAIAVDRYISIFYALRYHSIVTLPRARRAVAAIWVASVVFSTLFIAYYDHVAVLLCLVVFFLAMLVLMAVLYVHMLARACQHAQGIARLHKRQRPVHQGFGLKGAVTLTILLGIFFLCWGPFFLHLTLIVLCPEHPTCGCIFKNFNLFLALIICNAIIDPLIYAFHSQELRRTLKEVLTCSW

Row | weight loss as compared to treatment with betamethasone [1] | Molecule | immune response at second challenge after resensitization (tolerance) [2] | CHS reaction at first challenge in recipients of hapten- and peptide-treated BMDC [2] | inhibition of CHS response to DNFB exposure 7 days after sensitization (auricular swelling) [3] | auricular swelling response after second sensitization and hapten exposure (tolerance to DNFB) [3] | effect of reinjected CD4+ T-cells on contact allergy [4] | effect of co-cultured CD4+ T-cells on proliferation of CD4+CD25− responder T-cells [5] | IL-10 production [6] | production of IL-10 [6] | suppression of biotin-labeled αMSH binding [7] | expression of Foxp3 and IL-10 in regulatory T cells [8] | expression of IFN-γ in regulatory T cells [8] | number and size of petechial lesions after challenge injection of LPS [9] | number of regulatory CD4+CD25+Foxp3+ T cells ([10]; flow cytometry) | expression of regulatory T cells markers ([10]; qRT-PCR) | expression of Th17 markers ([10]; quantitative RT-PCR) | binding of T and B cells to LPS- or TNF-αMSH-treated EC layers [11] | induction of tolerance by T cells contacted in vitro with antigen-loaded, treated DC [12] | inhibition of LPS- or TNFα-induced expression of adhesion molecules (mRNA) [13]
1 | does not result in weight loss | C[C@@H](O)[C@H](NC(=O)[C@H]1CCCN1C(=O)[C@@H](N)CCCCN)C(=O)O [KdPT, (L)Lys-(D)Pro-(L)Thr] (H-Lys-[dP]-Thr-OH) | – | – | – | – | – | – | – | – | – | – | – | – | – | – | – | – | – | –
2 | – | Lys-Pro [KP] | can induce tolerance | suppressed | inhibits | inhibited the auricular swelling response very greatly | – | – | – | – | – | – | – | – | – | – | – | – | – | –
3 | – | Lys-Pro-Val [KPV] | – | – | inhibits | weak effect | suppressive effect on contact allergy | suppressive effect on the proliferation | evidently induced IL-10 production | significantly increased | significant inhibition | – | – | – | – | – | – | – | – | –
4 | – | α-melanocyte-stimulating hormone [αMSH] | no immune response | suppressed | inhibits | inhibited the auricular swelling response very greatly | suppressive effect on contact allergy | suppressive effect on the proliferation | evidently induced IL-10 production | significantly increased | – | upregulated | downregulated substantially | significantly reduces | increased numbers | increased expression | Reduced Expression | significantly reduces | induction of tolerance | inhibited
